Experimental data reported in publication PMC9776381, “A Large-Scale High-Throughput Screen for Modulators of SERCA Activity” (Biomolecules, 2022).
“Also recorded” adds a separate entry of the source.

Assays:
[1] = molecular target: T1, SERCA1a (rabbit light skeletal SR vesicles) (Oryctolagus cuniculus, UniProt P04191); assay: NADH-coupled Ca-ATPase activity assay, skeletal SR (CRC at pCa 5.4); type: biochemical; conditions: n = 3; for Skeletal SR ATPase Activity Percent Increase: maximal effect of CRC 0.05 to 50 µM, pCa 5.4, relative to DMSO, mean ± SD; for EC50: pCa 5.4, mean ± SD
T1 construct: rabbit muscles were freshly harvested from the back and hind leg of New Zealand White rabbits and purified using a sucrose gradient; from tissue; host or cells: rabbit (New Zealand White) back and hind leg skeletal muscle, light SR vesicles
Procedure: (§1) For skeletal SR, rabbit muscles were freshly harvested from the back and hind leg of New Zealand White rabbits and purified using a sucrose gradient. The resulting light skeletal SR contains 80% SERCA, as a proportion of total protein content. Cardiac SR vesicles were isolated from fresh porcine left ventricular tissue.
(§2) Functional assays were performed using rabbit light skeletal sarcoplasmic (SR) vesicles. For high-throughput NADH-coupled screening, assay mix containing a final concentration of 50 mM MOPS (pH 7.0), 100 mM KCl, 1 mM EGTA, 0.2 mM NADH, 1 mM phosphoenol pyruvate, 10 IU/mL of pyruvate kinase, 10 IU/mL of lactate dehydrogenase, 1 µM of the calcium ionophore A23187, 4 µg/mL skeletal SR, and added CaCl2 to obtain pCa 5.4 was dispensed into 384-well DIVERSet assay plates containing 50 nL of compound or DMSO using a FlexDrop Precision liquid dispenser (Perkin Elmer, Waltham, Massachusetts). Plates were sealed, covered from light, and incubated at room temperature for 20 min. The assay was then started by dispensing MgATP (termed “initiation mix”), to a final concentration of 5 mM in each well (80 µL total assay volume) with the FlexDrop liquid dispenser (Perkin Elmer). The time dependence of absorbance was measured at 340 nm in a SpectraMax Plus384 microplate spectrophotometer (Molecular Devices, Sunnyvale, CA). For follow-up concentration response curves of Hit compounds, 400 nL of either compound or DMSO was dispensed into each well using an Echo liquid dispenser (Beckman Coulter). Testing dose-dependent compound effects on rabbit skeletal SR vesicles was done using the same method, as described above in 384-well plates. Determining compound effects on cardiac SR vesicles was done in a similar method as above, with the exception of 10 µg/mL of cardiac SR incubated in assay mix consisting of a final concentration of 50 mM MOPS (pH 7.0), 100 mM KCl, 1 mM EGTA, 1 µM of the calcium ionophore A23187, and added CaCl2 to the desired free calcium values. After a 20 min incubation, the “initiation mix”, containing a final concentration of 0.2 mM NADH, 1 mM phosphoenol pyruvate, 10 IU/mL of pyruvate kinase, 10 IU/mL of lactate dehydrogenase, and 5mM MgATP, was dispensed into each well.
The initial screen assay was performed with compounds at 10 µM. To better study the selected Hit compounds for their activation potential, we performed ATPase analyses (in triplicate) over a range of Hit concentrations (0.05 to 50 µM), generating concentration-response curves (CRCs) to determine maximal effects and EC50 (Figure 2). We used the same Ca^2+ concentration (pCa 5.4) as in the screening assays, thus focusing on the effects on the maximal velocity of SERCA. Two of the selected Hits yielded no response in follow-up assays, probably due to a mismatch in chemical composition between the library compound and the subsequently ordered compound (DS95401435 and DS41547941). This type of discrepancy is a typical hurdle in the screening process. Each of the other 19 compounds produced a substantial increase in ATPase activity, ranging from 30% to 72% (Table 1 and Supporting Information, Figure S1), as expected due to similarity of the CRC assay to the initial screen.

[2] = molecular target: T2, SERCA2a (cardiac SR vesicles) (Sus scrofa, UniProt P11607); assay: Oxalate-supported Ca2+-uptake assay, cardiac SR (CRC at pCa 5.4); type: biochemical, porcine; conditions: for Cardiac SR Ca^2+ Uptake Activity Percent Increase: maximal effect of CRC; for Cardiac SR Ca^2+ Uptake Activity Percent Increase / EC50: pCa 5.4, mean ± SD, dash = no observable effect; for Cardiac SR Ca^2+ Uptake Activity Percent Increase / EC50 / Compound classification from ATPase vs. Ca^2+ uptake CRCs, cardiac SR: n = 3; for EC50: read-out: Cardiac SR Ca^2+ Uptake Activity EC50; for Effect on Ca^2+ uptake activity in cardiac SR (in words): pCa 5.4
T2 construct: Cardiac SR vesicles were isolated from fresh porcine left ventricular tissue; from tissue; host or cells: porcine left ventricular tissue, cardiac SR vesicles
Procedure: as §1
(§3) To determine compound effect on the Ca^2+-uptake activity of SERCA1a and SERCA2a, we used an oxalate-supported assay. A solution containing 50 mM MOPS (pH 7.0), 100 mM KCl, 30 mg/mL sucrose, 1 mM EGTA, 10 mM potassium oxalate, 2 µM Fluo-4, 30 µg/mL cardiac SR vesicles or 12 μg/mL skeletal SR vesicles, and CaCl2 calculated to reach the desired free [Ca^2+] was dispensed into 384-well black walled, transparent bottomed plates (Greiner Bio-One) containing the tested small molecule and incubated at 21 °C for 20 min while covered and protected from light. To start the reaction, MgATP was added to a final concentration of 5 mM, and the decrease in 485-nm excited fluorescence was monitored at 520 nm for 15 min using a FLIPR Tetra (Molecular Devices, San Jose, CA, USA).
To determine whether the observed increases in SERCA2a ATPase activity translate to Ca^2+ uptake function, we applied our Ca^2+ transport assay to test our selected Hit compounds in cardiac SR (Table 1). Indeed, 16 of the 19 compounds yielded a clear increase in Ca^2+ uptake activity. In fact, eight compounds generated an increase at least 50% greater in cardiac SR than in skeletal SR. Three compounds had either an inhibitory or no effect on Ca^2+ transport, and two of these were also non-activating compounds in skeletal SR.

[3] = molecular target: T2, SERCA2a (cardiac SR vesicles); assay: NADH-coupled Ca-ATPase activity assay, cardiac SR (CRC at pCa 5.4); type: biochemical, porcine; conditions: pCa 5.4, mean ± SD, n = 3; for Cardiac SR ATPase Activity Percent Increase: maximal effect of CRC
Procedure: as §1, §2
While initial screening was performed in skeletal SR enriched with the SERCA1a isoform, high sequence and structural homology with the cardiac SERCA2a isoform predicts a potential for cross reactivity of the Hit compounds. To test this hypothesis, we performed ATPase analyses with cardiac SR microsomes, which are enriched for SERCA2a.

[4] = molecular target: T3, SERCA1a (skeletal SR vesicles) (Oryctolagus cuniculus, UniProt P04191); assay: Oxalate-supported Ca2+-uptake assay, skeletal SR (CRC at pCa 5.4); type: biochemical, rabbit; conditions: for Skeletal SR Ca^2+ Uptake Activity Percent Increase: maximal effect of CRC; for Skeletal SR Ca^2+ Uptake Activity Percent Increase / EC50: pCa 5.4, mean ± SD, dash = no observable effect; for Skeletal SR Ca^2+ Uptake Activity Percent Increase / EC50 / Compound classification from ATPase vs. Ca^2+ uptake CRCs, skeletal SR: n = 3; for EC50: read-out: Skeletal SR Ca^2+ Uptake Activity EC50; for Effect on Ca^2+ uptake activity in skeletal SR (in words): pCa 5.4; for Ca^2+ uptake effect (in words), SR type not given: uncoupling compounds, cluster 5, tissue not stated
T3 construct: rabbit muscles were freshly harvested from the back and hind leg of New Zealand White rabbits and purified using a sucrose gradient; from tissue; host or cells: rabbit (New Zealand White) back and hind leg skeletal muscle, light SR vesicles
Procedure: as §1, §3
While Ca^2+-dependent ATPase activity is a direct measure of SERCA activity, coupling of ATP hydrolysis to transport of Ca^2+ across the SR membrane is essential for the role of SERCA in cellular physiology. Therefore, we next asked whether our ATPase-based HTS assay could successfully identify compounds that also increase Ca^2+ uptake of SERCA.

T3 sequence (P04191 1-994 isoform P04191-2): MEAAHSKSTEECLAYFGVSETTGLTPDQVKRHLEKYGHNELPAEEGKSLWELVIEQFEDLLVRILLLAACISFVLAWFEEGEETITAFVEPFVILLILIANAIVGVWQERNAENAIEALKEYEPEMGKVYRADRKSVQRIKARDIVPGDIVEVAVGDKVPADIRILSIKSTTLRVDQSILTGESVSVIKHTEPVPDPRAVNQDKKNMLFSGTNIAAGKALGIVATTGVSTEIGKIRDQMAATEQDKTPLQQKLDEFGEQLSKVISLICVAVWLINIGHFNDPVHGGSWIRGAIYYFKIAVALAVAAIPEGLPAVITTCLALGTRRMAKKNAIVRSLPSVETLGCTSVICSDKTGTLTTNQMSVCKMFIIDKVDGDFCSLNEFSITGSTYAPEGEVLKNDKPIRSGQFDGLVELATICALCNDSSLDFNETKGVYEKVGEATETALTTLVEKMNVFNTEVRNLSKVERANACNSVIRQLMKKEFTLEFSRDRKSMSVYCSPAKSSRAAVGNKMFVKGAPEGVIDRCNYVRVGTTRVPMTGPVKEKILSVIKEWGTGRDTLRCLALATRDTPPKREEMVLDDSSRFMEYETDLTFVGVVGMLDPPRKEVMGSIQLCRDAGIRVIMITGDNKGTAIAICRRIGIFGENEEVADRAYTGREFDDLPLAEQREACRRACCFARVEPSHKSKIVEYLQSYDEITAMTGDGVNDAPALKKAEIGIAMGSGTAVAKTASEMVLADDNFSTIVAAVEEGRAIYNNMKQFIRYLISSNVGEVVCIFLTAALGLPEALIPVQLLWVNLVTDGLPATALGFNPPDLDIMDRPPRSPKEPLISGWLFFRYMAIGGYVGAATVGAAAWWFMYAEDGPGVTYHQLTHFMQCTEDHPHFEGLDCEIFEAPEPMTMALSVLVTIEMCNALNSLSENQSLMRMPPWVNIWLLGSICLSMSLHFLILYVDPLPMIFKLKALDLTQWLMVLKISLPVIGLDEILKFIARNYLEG
T1 sequence (P04191 1-994 isoform P04191-2): as above
T2 sequence (P11607 1-997 isoform P11607-2): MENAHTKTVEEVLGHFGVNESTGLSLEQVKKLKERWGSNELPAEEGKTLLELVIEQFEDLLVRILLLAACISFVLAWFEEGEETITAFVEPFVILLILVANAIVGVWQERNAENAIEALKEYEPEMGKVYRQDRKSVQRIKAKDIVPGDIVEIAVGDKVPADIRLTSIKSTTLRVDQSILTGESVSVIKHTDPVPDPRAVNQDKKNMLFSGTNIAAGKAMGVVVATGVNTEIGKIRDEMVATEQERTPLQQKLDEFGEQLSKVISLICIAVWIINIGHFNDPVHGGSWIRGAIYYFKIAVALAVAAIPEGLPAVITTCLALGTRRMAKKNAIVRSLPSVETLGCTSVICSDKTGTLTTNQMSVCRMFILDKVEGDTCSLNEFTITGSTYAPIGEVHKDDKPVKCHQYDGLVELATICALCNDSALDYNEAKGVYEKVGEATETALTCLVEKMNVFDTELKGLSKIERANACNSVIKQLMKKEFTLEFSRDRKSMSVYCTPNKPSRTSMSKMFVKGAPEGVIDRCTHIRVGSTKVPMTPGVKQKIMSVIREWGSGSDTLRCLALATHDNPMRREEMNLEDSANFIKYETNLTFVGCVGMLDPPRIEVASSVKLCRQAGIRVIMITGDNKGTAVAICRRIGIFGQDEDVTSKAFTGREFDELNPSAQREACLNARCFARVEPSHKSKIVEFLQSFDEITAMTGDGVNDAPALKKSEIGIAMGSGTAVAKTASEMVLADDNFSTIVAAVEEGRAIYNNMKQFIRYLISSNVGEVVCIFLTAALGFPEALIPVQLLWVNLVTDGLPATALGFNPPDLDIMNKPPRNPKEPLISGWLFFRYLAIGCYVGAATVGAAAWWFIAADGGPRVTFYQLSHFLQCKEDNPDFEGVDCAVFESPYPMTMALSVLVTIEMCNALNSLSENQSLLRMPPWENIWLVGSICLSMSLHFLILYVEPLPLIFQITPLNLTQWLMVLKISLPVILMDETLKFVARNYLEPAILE

Row | SMILES | Skeletal SR ATPase Activity Percent Increase [1] | EC50 [1] | Cardiac SR Ca^2+ Uptake Activity Percent Increase [2] | EC50 [2] | Cardiac SR ATPase Activity Percent Increase [3] | EC50 [3] | Skeletal SR Ca^2+ Uptake Activity Percent Increase [4] | EC50 [4] | Compound classification from ATPase vs. Ca^2+ uptake CRCs, skeletal SR [4] | Increase in Ca^2+ uptake in cardiac SR vs. skeletal [2] | Compound classification from ATPase vs. Ca^2+ uptake CRCs, cardiac SR [2] | Effect on Ca^2+ uptake activity in cardiac SR (in words) [2] | Effect on Ca^2+ uptake activity in skeletal SR (in words) [4] | Effect on Ca^2+ uptake activity in skeletal SR (in words) ([4]; listed as DS33804556) | Ca^2+ uptake effect (in words), SR type not given [4]
1 | CCOC(=O)C1(Cc2cccc(C(F)(F)F)c2)CCN(C(=O)c2sccc2C)CC1 [Compound 8] | 45 ± 2% | 4 ± 0.4 µM | 18 ± 2% | 0.8 ± 0.3 µM | 43 ± 2% | 3.4 ± 0.3 µM | 13 ± 1% | 1.3 ± 0.4 µM | Improved Coupling Compounds | – | – | – | – | – | –
2 | Cc1ccsc1CN(C)C(=O)CC(c1ccccc1)c1ccc2c(c1)OCO2 (stereo not drawn) [Compound 11] | 61 ± 2% | 7.2 ± 0.4 µM | 18 ± 2% | 1.2 ± 0.4 µM | 62 ± 2% | 6.4 ± 0.4 µM | 9.1 ± 0.8% | 1.2 ± 0.3 µM | – | – | – | – | – | – | –
3 | OCc1ccccc1-c1ccc(-c2nc(CCc3ccccc3)no2)cn1 [Compound 19] | 42 ± 2% | 7.3 ± 0.8 µM | 8 ± 1% | 2.4 ± 0.6 µM | 22 ± 2% | 6.3 ± 0.4 µM | 7.2 ± 0.1% | 1.8 ± 0.7 µM | – | – | – | – | – | – | –
4 | C=CCN(Cc1ccccc1OCC)C(=O)C1CCC1 [Compound 5] | 41 ± 3% | 9 ± 1 µM | 16 ± 3% | 1 ± 0.7 µM | 58 ± 6% | 7.7 ± 2 µM | 10 ± 1% | 1.4 ± 0.6 µM | – | – | – | – | – | – | –
5 | CN(Cc1ccccc1)c1ncccc1CNc1ncccc1Cl [Compound 13] | 36 ± 4% | 3.2 ± 0.6 µM | 21 ± 10% | 1.8 ± 2 µM | 36 ± 4% | 2.9 ± 0.6 µM | 8 ± 2% | 1.1 ± 0.6 µM | – | greater than 2 fold | – | – | – | – | –
6 | COc1ccc(CCNC(=O)c2oc3c(Cl)cc(C)cc3c2C)cc1 [Compound 16] | 25 ± 1% | 3 ± 0.3 µM | −27 ± 3% | 8.9 ± 2 µM | 26 ± 2% | 2.2 ± 0.4 µM | −10 ± 2% | 7 ± 13 µM | Uncoupling Compounds | – | Uncoupling Compounds | inhibition of Ca^2+ uptake activity; also recorded: inhibitor of Ca^2+ uptake | inhibition of Ca^2+ uptake activity; also recorded: inhibitor of Ca^2+ uptake | inhibitory | sizeable inhibitor effect
7 | CCCSCC(=O)N(Cc1ccc(C)s1)C1CCCC1 [Compound 3] | 54 ± 2% | 7.3 ± 0.5 µM | 37 ± 3% | 3.5 ± 0.7 µM | 48 ± 4% | 6.7 ± 1 µM | 20 ± 1% | 3.4 ± 0.5 µM | – | – | Improved Coupling Compounds | – | – | – | –
8 | COc1ncc(CN(Cc2sccc2C)CC(C)C)cn1 [Compound 2] | 36 ± 2% | 4 ± 0.5 µM | 12 ± 1% | 1.2 ± 0.2 µM | 33 ± 3% | 2.9 ± 0.6 µM | 15 ± 1% | 2.2 ± 0.4 µM | – | – | – | – | – | – | –
9 | COc1ccccc1CNc1nc(C(C)(C)C)nc2c1cnn2C [Compound 14] | 25 ± 3% | 3.3 ± 0.6 µM | 28 ± 5% | 2.5 ± 0.9 µM | 56 ± 3% | 5.2 ± 0.5 µM | 8 ± 2% | – | – | greater than 2 fold | – | – | – | – | –
10 | Fc1ccc(N2CCCN(Cc3nc(C(c4ccccc4)c4ccccc4)no3)CC2)cc1 [Compound 12] | 41 ± 2% | 3.4 ± 0.4 µM | −10 ± 3% | 1.3 ± 0.1 µM | 29 ± 1% | 2.3 ± 0.3 µM | 6.5 ± 0.5% | 0.6 ± 0.2 µM | – | – | Isoform-specific uncoupler | strong uncoupling effect; also recorded: inhibition of Ca^2+ uptake activity | significant activation; also recorded: small but significant increase | – | –
11 | Cc1ccc(CN(C)C(=O)CC(c2ccccc2)c2ccc3c(c2)OCO3)o1 (stereo not drawn) [Compound 10] | 57 ± 3% | 10 ± 1 µM | 16 ± 3% | 1.6 ± 0.7 µM | 55 ± 2% | 7.5 ± 0.4 µM | 11 ± 3% | 4 ± 2 µM | – | – | – | – | – | – | –
12 | CCc1cccc(NC(=O)CCC(=O)NCc2snnc2C)c1 [Compound 17] | 42 ± 4% | 16 ± 3 µM | – | – | 62 ± 5% | 9.4 ± 1 µM | – | – | – | – | – | – | – | – | little to no Ca^2+ uptake effect
